Key:
FLT3 WT = biological target: T1, FLT3 WT (Homo sapiens, UniProt P36888); test: Kinase inhibition assay with [γ-33P]ATP; format: biochemical; settings: AGLT substrate, 1 μM ATP
T1 construct: purchased ProQinase GmbH
T1 sequence (P36888 27-993): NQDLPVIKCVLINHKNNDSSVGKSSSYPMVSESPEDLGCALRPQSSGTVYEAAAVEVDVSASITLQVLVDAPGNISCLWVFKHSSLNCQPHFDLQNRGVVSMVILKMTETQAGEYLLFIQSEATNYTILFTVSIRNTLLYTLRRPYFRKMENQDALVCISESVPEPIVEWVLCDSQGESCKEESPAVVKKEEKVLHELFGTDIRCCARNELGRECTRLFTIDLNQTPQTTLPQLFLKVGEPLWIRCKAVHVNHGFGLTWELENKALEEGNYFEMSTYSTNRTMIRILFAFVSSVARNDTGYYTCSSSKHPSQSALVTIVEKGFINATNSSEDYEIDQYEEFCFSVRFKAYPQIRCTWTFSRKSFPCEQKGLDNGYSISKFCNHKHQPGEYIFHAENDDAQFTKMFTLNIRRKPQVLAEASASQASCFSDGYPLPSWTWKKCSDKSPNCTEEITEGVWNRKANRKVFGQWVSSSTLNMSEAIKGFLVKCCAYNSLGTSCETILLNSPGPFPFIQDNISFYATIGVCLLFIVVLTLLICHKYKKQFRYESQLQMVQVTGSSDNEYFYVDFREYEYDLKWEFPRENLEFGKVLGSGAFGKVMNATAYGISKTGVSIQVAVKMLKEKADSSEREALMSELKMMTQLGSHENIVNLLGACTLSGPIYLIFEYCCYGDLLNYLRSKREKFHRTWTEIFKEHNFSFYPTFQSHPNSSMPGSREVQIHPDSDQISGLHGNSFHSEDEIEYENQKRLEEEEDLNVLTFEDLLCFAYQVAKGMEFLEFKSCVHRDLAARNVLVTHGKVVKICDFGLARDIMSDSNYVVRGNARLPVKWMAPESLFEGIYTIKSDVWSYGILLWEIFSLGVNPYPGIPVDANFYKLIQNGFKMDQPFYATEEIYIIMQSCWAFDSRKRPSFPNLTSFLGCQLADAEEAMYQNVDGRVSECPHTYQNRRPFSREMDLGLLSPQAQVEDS
Procedure: (§1) CDK1/Cyclin B and CDK2/Cyclin E kinases were produced in Sf9 insect cells via baculoviral infection and purified on a NiNTA column (Qiagen). CDK5/p35 and CDK7Cyclin H/MAT1, FLT3 WT, FLT3-ITD and FLT3 D835 were purchased from ProQinase GmbH. The kinase reactions were assayed with 1 mg/mL histone H1 (for CDK1, CDK2 and CDK5), (YSPTSPS)2KK peptide (for CDK7) or AGLT substrate (for FLT3) in the presence of 15/15/0.15/1.5/1 μM ATP (for CDK1/CDK2/CDK5/CDK7/FLT3), 0.05 μCi [γ-^33P]ATP and of the test compound in a final volume of 10 μL, all in a reaction buffer (60 mM HEPES-NaOH, pH 7.5, 3 mM MgCl2, 3 mM MnCl2, 3 μM Na-orthovanadate, 1.2 mM DTT, 2.5 μg/50 μl PEG20,000). The reactions were stopped by adding 5 μL of 3% aq H3PO4. Aliquots were spotted onto P-81 phosphocellulose (Whatman), washed 3× with 0.5% aq H3PO4 and finally air-dried.

CDK2/Cyclin E = biological target: T2, CDK2/Cyclin E (Homo sapiens, UniProt P24941); test: Kinase inhibition assay with [γ-33P]ATP; format: biochemical; settings: histone H1, 15 μM ATP; read-out: IC50 values (μM) CDK2
T2 construct: made in house; host or cells: Sf9 insect cells, baculoviral infection
Procedure: as §1

K562 = test: Calcein AM cytotoxicity assay; format: cell-based; settings: Homo sapiens, 72 h; K562; Calcein AM, three days; read-out: EC50 values (μM) K562
Text: (§2) Cytotoxicity of the compounds is the major property determining their anticancer effect in vivo. One of the parameters used, as the basis for cytotoxicity assays, is the integrity of cytoplasmic membrane of viable cells. For example, a microtiter assay, which uses acetomethoxy derivate of calcein (Calcein AM), is widely used for evaluation of cell proliferation and cytotoxicity. This assay is used in drug screening programs and in chemosensitivity testing. Intracellular esterases of viable cells convert calcein AM to green-fluorescent calcein of which signal corresponds to the number of viable cells in the culture.
(§3) We have been using the following cell lines: MV4-11 (acute myeloid leukemia, FLT3-ITD positive), MOLM-13 (acute myeloid leukemia, FLT3-ITD positive), THP-1 (acute myeloid leukemia, wt FLT3), U937 (monocytic leukemia, wt FLT3), EOL-1 (eosinophilic leukaemia, carrying the fusion FIP1L1-PDGFRA), H1703 (non-small cell lung carcinoma, PDGFRA amplification). […] K562 and MCF-7 cell lines were maintained in DMEM supplemented with 10% fetal bovine serum, penicilin (100 U/ml) and streptomycin (100 μg/ml). All cell lines were cultivated at 37° C. in 5% CO2. For cytotoxicity assays, cells were seeded in appropriate densities into 96 well plates and the next day tested compounds were added at various concentrations in triplicates. Three days after drug addition, Calcein AM solution (final concentration 1 μg/ml; Thermo Scientific, USA) was added into each well and incubated for 1 h.

MCF-7 = test: Calcein AM cytotoxicity assay; format: cell-based; settings: Homo sapiens, MCF7, 72 h; MCF-7; Calcein AM, three days; read-out: EC50 values (μM) MCF-7
Text: as §2, §3

[1] = tested on: MV4-11 (acute myeloid leukemia, FLT3-ITD positive); test: Calcein AM cytotoxicity assay; format: cell-based; settings: Homo sapiens, 72 h; MV4-11; Calcein AM, three days after drug addition; read-out: EC50 values (μM) MV4-11
Text: as §2, §3

[2] = tested on: EOL-1 (eosinophilic leukaemia, carrying the fusion FIP1L1-PDGFRA); test: Calcein AM cytotoxicity assay; format: cell-based; settings: Homo sapiens, EOL1, 72 h; EOL-1; Calcein AM, three days; read-out: EC50 values (μM) EOL-1
Text: as §2, §3

[3] = tested on: MOLM-13 (acute myeloid leukemia, FLT3-ITD positive); test: Calcein AM cytotoxicity assay; format: cell-based; settings: Homo sapiens, 72 h; MOLM-13; Calcein AM, three days; read-out: EC50 values (μM) MOLM-13
Text: as §2, §3

[4] = tested on: U937 (monocytic leukemia, wt FLT3); test: Calcein AM cytotoxicity assay; format: cell-based; settings: Homo sapiens, U-937, 72 h; U937; Calcein AM, three days; read-out: EC50 values (μM) U937
Text: as §2, §3

[5] = tested on: THP-1 (acute myeloid leukemia, wt FLT3); test: Calcein AM cytotoxicity assay; format: cell-based; settings: Homo sapiens, 72 h; THP-1; Calcein AM, three days; read-out: EC50 values (μM) THP-1
Text: as §2, §3

[6] = tested on: Kasumi-1 (acute myeloid leukemia, KIT mutation Asn822Lys); test: Calcein AM cytotoxicity assay; format: cell-based; settings: Homo sapiens, 72 h; Kasumi-1; Calcein AM, three days; read-out: EC50 values (μM) Kasumi-1
Text: as §2
We have been using the following cell lines: MV4-11 (acute myeloid leukemia, FLT3-ITD positive), MOLM-13 (acute myeloid leukemia, FLT3-ITD positive), THP-1 (acute myeloid leukemia, wt FLT3), U937 (monocytic leukemia, wt FLT3), EOL-1 (eosinophilic leukaemia, carrying the fusion FIP1L1-PDGFRA), H1703 (non-small cell lung carcinoma, PDGFRA amplification). They were maintained in RPMI-1640 supplemented with 10% fetal bovine serum, penicillin (100 U/ml) and streptomycin (100 μg/ml). Kasumi-1 (acute myeloid leukemia, KIT mutation Asn822Lys) cells were cultivated in RPMI-1640 supplemented with 15% fetal bovine serum, penicillin (100 U/ml) and streptomycin (100 μg/ml). K562 and MCF-7 cell lines were maintained in DMEM supplemented with 10% fetal bovine serum, penicilin (100 U/ml) and streptomycin (100 μg/ml). All cell lines were cultivated at 37° C. in 5% CO2. For cytotoxicity assays, cells were seeded in appropriate densities into 96 well plates and the next day tested compounds were added at various concentrations in triplicates. Three days after drug addition, Calcein AM solution (final concentration 1 μg/ml; Thermo Scientific, USA) was added into each well and incubated for 1 h. After this incubation period, fluorescence of the live cells was measured at 485 nm/538 nm (ex/em) with a Fluoroskan Ascent microplate reader (Labsystems).

SMILES	IC50 (FLT3 WT) [µM]	IC50 (CDK2/Cyclin E) [µM]	EC50 (K562) [µM]	EC50 (MCF-7) [µM]	EC50 [1] [µM]	EC50 [2] [µM]	EC50 [3] [µM]	EC50 [4] [µM]	EC50 [5] [µM]	EC50 [6] [µM]
NC(=O)CCCCNc1nc(Nc2ccc(N3CC4(CNC4)C3)cc2)c2ncn(C3CCCC3)c2n1 [Compound 156]	–	0.006	0.84	0.697	0.001	–	–	–	–	–
OCCCCNc1nc(Nc2ccc(CN3CCOCC3)cc2)c2ncn(C3CCCC3)c2n1 [Compound 276]	–	1.8	–	–	0.029	–	–	–	–	–
CN1CC2(C1)CN(Cc1ccc(Nc3nc(NCC(O)CN)nc4c3ncn4C3CCCC3)cc1)C2 (stereo not shown) [Compound 199]	0.013	0.005	1.36	0.67	0.011	–	0.043	1	0.925	0.227
CN(C)CCCCNc1nc(Nc2ccc(C(=O)N3CCOCC3)cc2)c2ncn(C3CCCC3)c2n1 [Compound 182]	0.013	0.005	4.21	1.59	0.002	0.04	0.017	0.631	1.5	1.68
CN1CCN(c2nc(Nc3ccc(N4CCNCC4)nc3)c3ncn(C4CCCC4)c3n2)CC1 [Compound 58]	–	–	0.695	0.44	0.017	0.056	0.017	0.794	1.13	0.492
CN(C)CCCCNc1nc(Nc2ccc(N3CCOCC3)nc2)c2ncn(C3CCCC3)c2n1 [Compound 183]	–	–	0.98	0.665	0.0005	0.014	0.005	0.4	0.36	0.183
NC(=O)CCNc1nc(Nc2ccc(C(=O)N3CCOCC3)nc2)c2ncn(C3CCCC3)c2n1 [Compound 149]	–	–	1.17	0.688	0.007	–	–	–	–	1.01

The next lines start with results.

IC50 (FLT3 WT) [µM]	IC50 (CDK2/Cyclin E) [µM]	SMILES	EC50 (K562) [µM]	EC50 (MCF-7) [µM]	EC50 [1] [µM]	EC50 [2] [µM]	EC50 [3] [µM]	EC50 [4] [µM]	EC50 [5] [µM]	EC50 [6] [µM]
0.021	0.028	CCN1CCN(C(=O)c2ccc(Nc3nc(N4CCN(C)CC4)nc4c3ncn4C3CCCC3)cn2)CC1 [Compound 60]	–	–	–	–	–	–	–	–
–	3.01	OCCCNc1nc(Nc2ccc(CN3CCOCC3)cc2)c2ncn(C3CCCC3)c2n1 [Compound 275]	–	–	0.066	0.73	–	–	–	–
–	1.17	OCCNc1nc(Nc2ccc(CN3CCOCC3)cc2)c2ncn(C3CCCC3)c2n1 [Compound 274]	–	–	0.074	0.503	–	–	–	–
–	16.4	CN(C)CCCNc1nc(Nc2ccc(N3CCN(C)CC3)cc2)c2ncn(C3CCCC3)c2n1 [Compound 174]	–	–	–	–	–	–	–	–
–	0.008	NC1CCC(Nc2nc(Nc3ccc(N4CCOCC4)nc3)c3ncn(C4CCCC4)c3n2)CC1 (stereo not shown) [Compound 269]	1.35	0.96	0.004	0.01	–	1.49	–	–
–	0.951	c1cc(N2CCOCC2)ncc1Nc1nc(N2CCOCC2)nc2c1ncn2C1CCCC1 [Compound 46]	–	–	0.02	0.377	–	–	–	–
–	2.6	CCN1CCN(C(=O)c2ccc(Nc3nc(NCCCC(N)=O)nc4c3ncn4C3CCCC3)cn2)CC1 [Compound 155]	5.17	4.71	0.164	–	–	–	–	–
0.02	0.003	CN(C)CCCCNc1nc(Nc2ccc(C(=O)N3CCN(C)CC3)nc2)c2ncn(C3CCCC3)c2n1 [Compound 185]	–	–	–	–	–	–	–	–
0.073	1.98	c1cc(Nc2nc(N3CCCCC3)nc3c2ncn3C2CCCC2)ccc1CN1CCOCC1 [Compound 271]	8.28	12.3	0.701	1.37	0.431	7.62	> 10	2.16

Source: patent publication US11028087B2, “2,6-disubstituted-9-cyclopentyl-9H-purines, use thereof as medicaments, and pharmaceutical compositions” (UNIVERZITA PALACKEHO V OLOMOUCI, priority 2017, dated 2021)
